# Measured values taken from patent publication US20040034039A1, “Solid preparations” (priority 2000, published 2004).
# Experiment: Contact angle of a water drop on a compression-molded product
# Type: physicochemical
# Settings: purified water drop on 300 mg, 13 mm compression-molded product (1 ton/cm^2), 15 seconds after placing
# Protocol: The “water-repellent physiologically active substance” to be used in the present invention is exemplified by a substance difficult to get wet, or having a large contact angle, and the like. A specific example thereof is a physiologically active substance having a contact angle of not less than 40 degrees, preferably not less than 60 degrees, more preferably not less than 80 degrees, as measured by forming a compression-molded product (300 mg) having a diameter of 13 mm with Shimadzu autograph (AG-5000B, manufactured by Shimadzu Corporation) at a load of 1 ton/cm^2, placing one drop of purified water on the surface thereof with a syringe, and determining the contact angles of the water drop at 15 seconds after placing with an automatic contact angle meter (CA-Z, manufactured by Kyowa Interface Science Co., Ltd.), and the like. The contact angle of a representative highly water-repellent substance, magnesium stearate, compound A to be mentioned later: (5-(N-benzyl-N-methylaminomethyl)-1-(2,6-difluorobenzyl)-6-[4-(3-methoxyureido)phenyl]-3-phenylthieno[2,3-d]jpyrimidine-2,4(1H,3H)-dione), and compound B to be mentioned later (3-(N-benzyl-N-methylaminomethyl)-4,7-dihydro-5-isobutyryl-7-(2,6-difluorobenzyl)-2-[4-[(1-hydroxycyclopropyl)carbonylamino]phenyl]-4-oxothieno[2,3-b]pyridine) as measured according to the aforementioned method were about 96 degrees, about 90 degrees and about 88 degrees respectively.
row,contact angle,Molecule
1,about 90 degrees,"CONC(=O)Nc1ccc(-c2sc3c(c2CN(C)Cc2ccccc2)c(=O)n(-c2ccccc2)c(=O)n3Cc2c(F)cccc2F)cc1 [compound A, 5-(N-benzyl-N-methylaminomethyl)-1-(2,6-difluorobenzyl)-6-[4-(3-methoxyureido)phenyl]-3-phenylthieno[2,3-d]pyrimidine-2,4(1H,3H)-dione]"
2,about 88 degrees,"CC(C)C(=O)c1cn(Cc2c(F)cccc2F)c2sc(-c3ccc(NC(=O)C4(O)CC4)cc3)c(CN(C)Cc3ccccc3)c2c1=O [compound B, 3-(N-benzyl-N-methylaminomethyl)-4,7-dihydro-5-isobutyryl-7-(2,6-difluorobenzyl)-2-[4-[(1-hydroxycyclopropyl)carbonylamino]phenyl]-4-oxothieno[2,3-b]pyridine]"

row,Molecule,contact angle
1,magnesium stearate [reference compound],about 96 degrees
